Measurements from patent publication US20260250325A1, “Antiviral Polypeptide Membrane Fusion Inhibitor, and Preparation Method and Application Thereof” (priority 2025, published 2026).
Where a SMILES comes first, the peptide text is derived from it. The star is where a group is joined. Succinyl(4-O-cholesteryl) = CC(C)CCC[C@@H](C)[C@H]1CC[C@H]2[C@@H]3CC=C4C[C@@H](OC(=O)CCC(=O)*)CC[C@]4(C)[C@H]3CC[C@]12C

Columns and labels:
[1] = Cytotoxicity test in HEp-2 cells (CCK8 cell viability); assay type: cell-based; conditions: human; HEp-2 cells, CCK8, 1 day; read-out: CC50
Method in brief: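 Compound dilutions (final DMSO 0.5%) were applied for 1 day to HEp-2 cells plated at 30,000 per well the day before. CCK8 signal gave survival relative to cell and medium controls, and a four-parameter log(inhibitor)-response fit yielded CC50.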

hPIV3 C243 virus strain = assay type: cell-based, hPIV; conditions: LLC-MK2 cells, hPIV3 C243, plaque reduction; read-out: EC50 against hPIV3 virus
Method: Rhesus monkey kidney cells (LLC-MK2) were sourced from the ATCC, with a catalog number CCL-7.1. The cells were cultured in a DMEM culture solution in which 10% fetal bovine serum, 1% non-essential amino acids, 1% sodium pyruvate, 1% L-glutamine, 100 U/ml penicillin, and 100 μg/ml streptomycin were added.
An HPIV-3 plaque experiment culture medium consisted of a DMEM culture solution added with 2% fetal bovine serum, 1% non-essential amino acids, 1% sodium pyruvate, 1% L-glutamine, 100 U/ml penicillin, and 100 μg/ml streptomycin.
The hPIV Type 3 (hPIV3 C243) was sourced from the ATCC, with a catalog number VR-93.
This study used the plaque reduction experiment to detect the in-vitro activity of the test sample against the hPIV3 C243 virus strain, and Human Anti-HPIV3 Monoclonal Antibody, clone PIA174 was an experimental system control. The test sample and a system experimental antibody were tested at 8 concentrations in duplicated wells.
The LLC-MK2 cells were digested with trypsin and then diluted to a concentration of 400,000 cells per milliliter by using a cell culture solution containing 2% serum. The diluted cells were added to a 96-well cell test board, with 100 μL per well, corresponding to 40,000 cells per well. The cells were cultured overnight in a 37° C. incubator with 5% CO2.
On the next day, the sample diluted at a fold ratio and an equal volume of virus (approximately 200 PFU per well) were well mixed and incubated at 37° C. in 5% CO2 for 1 hour. Then, the culture solution in the 96-well cell test board was discarded, the sample virus mixed solution (100 μL) was added to the 96-well cell culture plate, and incubated at 37° C. in 5% CO2 for 2 hours. After 2 h, the sample virus mixed solution was discarded, 200 μL of an experiment culture medium containing the test sample with a corresponding concentration was added, and the culture solution contained 0.8% CMC. A final concentration of DMSO in the culture solution was 0.5%. A control antibody was directly added to the experiment culture solution containing 0.8% CMC. A cell control (cells, without compound treatment or viral infection) and a viral control (cell infection virus, without compound treatment) were set. The cells were cultured for 1 day in the 37° C. incubator with 5% CO2.
The cells were fixed with 4% paraformaldehyde, and then permeabilization was performed with 0.5% Triton X-100. After the plate was washed with DPBS, a hPIV specific antibody (1:2000 dilution) was added and incubated at 37° C. for 1.5 h. Then, a secondary antibody (1:500 dilution) was added and incubated at 37° C. for 1 hour. The secondary antibody was discarded, a TrueBlue solution was added, dyeing was performed for approximately 10 minutes; and the plate was washed with running water and then air-dried, and the number of spots in each well was counted by using a microplate imaging counter.
Raw data was used for calculating the antiviral activity of the samples, and a calculation formula was shown as follows.
% inhibition rate=100−(sample value-cell control average value)/(virus control average value-cell control average value)×100
Non-linear fitting analysis was performed on the inhibition rate of the sample by using GraphPad Prism (version 10), so as to calculate an EC50 value for the sample. A fitting formula was log (inhibitor) vs. response-Variable slope (four parameters).

| Molecule | CC50 at 1 day [1] [µM] | EC50 (hPIV3 C243 virus strain) [µM] |
| --- | --- | --- |
| CC[C@H](C)[C@H](NC(=O)[C@H](CCCCN)NC(=O)[C@H](CCC(=O)O)NC(=O)[C@H](CC(C)C)NC(=O)[C@H](CO)NC(=O)[C@H](CCC(N)=O)NC(=O)[C@H](CC(N)=O)NC(=O)[C@@H](NC(=O)[C@H](CCCCN)NC(=O)[C@H](CCC(=O)O)NC(=O)[C@H](CC(N)=O)NC(=O)[C@@H](NC(=O)[C@H](CCC(N)=O)NC(=O)[C@H](CO)NC(=O)[C@H](C)NC(=O)[C@H](CC(=O)O)NC(=O)[C@H](Cc1ccccc1)NC(=O)[C@@H](NC(=O)[C@H](CC(C)C)NC(=O)[C@H](CCC(=O)O)NC(=O)[C@H](CC(=O)O)NC(=O)[C@H](Cc1ccc(O)cc1)NC(C)=O)C(C)C)C(C)C)[C@@H](C)CC)C(=O)N[C@@H](CCCNC(=N)N)C(=O)N[C@@H](CCCCN)C(=O)N[C@@H](CO)C(=O)N[C@@H](CC(=O)O)C(=O)N[C@@H](CCC(=O)O)C(=O)N[C@@H](CC(C)C)C(=O)N[C@@H](CC(C)C)C(=O)N[C@@H](Cc1c[nH]cn1)C(=O)N[C@@H](CC(N)=O)C(=O)N[C@H](C(=O)NCC(=O)N[C@@H](CO)C(=O)NCC(=O)N[C@@H](CO)C(=O)NCC(=O)N[C@@H](CCCCNC(=O)CCC(=O)O[C@H]1CC[C@@]2(C)C(=CC[C@H]3[C@@H]4CC[C@H]([C@H](C)CCCC(C)C)[C@@]4(C)CC[C@@H]32)C1)C(N)=O)C(C)C [Compound 25] (Ac-YDELVFDASQVNEKINQSLEKIRKSDELLHNVGSGSGK(Succinyl(4-O-cholesteryl))-NH2) | 7.5 | 0.0294 |
| Ac-LVKKIDEFDASISQVNEKINQSLEEIRKSDELLHNVGSGSGK(Succinyl(4-O-cholesteryl))-NH2 [Compound 29] | 15 | 0.0263 |
| CC[C@H](C)[C@H](NC(=O)[C@H](CCCCN)NC(=O)[C@H](CCCCN)NC(=O)[C@H](CC(C)C)NC(=O)[C@H](CO)NC(=O)[C@H](CCC(=O)O)NC(=O)[C@H](CCC(=O)O)NC(=O)[C@@H](NC(=O)[C@H](CCCCN)NC(=O)[C@H](CCCCN)NC(=O)[C@H](CC(N)=O)NC(=O)[C@@H](NC(=O)[C@H](CCC(=O)O)NC(=O)[C@H](CCC(=O)O)NC(=O)[C@@H](NC(=O)[C@H](CCCCN)NC(=O)[C@H](CCCCN)NC(=O)[C@H](CC(=O)O)NC(=O)[C@H](Cc1ccccc1)NC(=O)[C@H](CCC(=O)O)NC(=O)[C@H](CC(=O)O)NC(=O)[C@H](CO)NC(C)=O)[C@@H](C)CC)C(C)C)[C@@H](C)CC)C(=O)N[C@@H](CCC(=O)O)C(=O)N[C@@H](CCC(=O)O)C(=O)N[C@@H](CO)C(=O)N[C@@H](CC(=O)O)C(=O)N[C@@H](CCCCN)C(=O)N[C@@H](CCCCN)C(=O)N[C@@H](CC(C)C)C(=O)NCC(=O)N[C@@H](CO)C(=O)NCC(=O)N[C@@H](CO)C(=O)NCC(=O)N[C@@H](CCCCNC(=O)CCC(=O)O[C@H]1CC[C@@]2(C)C(=CC[C@H]3[C@@H]4CC[C@H]([C@H](C)CCCC(C)C)[C@@]4(C)CC[C@@H]32)C1)C(N)=O [Compound 20] (Ac-SDEFDKKIEEVNKKIEESLKKIEESDKKLGSGSGK(Succinyl(4-O-cholesteryl))-NH2) | 29 | 0.0595 |
| CC[C@H](C)[C@H](NC(=O)[C@H](CCCCN)NC(=O)[C@H](CCCCN)NC(=O)[C@H](CC(C)C)NC(=O)[C@H](CO)NC(=O)[C@H](CCC(=O)O)NC(=O)[C@H](CCC(=O)O)NC(=O)[C@@H](NC(=O)[C@H](CCCCN)NC(=O)[C@H](CCCCN)NC(=O)[C@H](CC(N)=O)NC(=O)[C@@H](NC(=O)[C@H](CCC(=O)O)NC(=O)[C@H](CCC(=O)O)NC(=O)[C@@H](NC(=O)[C@H](CCCCN)NC(=O)[C@H](CCCCN)NC(=O)[C@H](CC(=O)O)NC(=O)[C@H](Cc1ccccc1)NC(=O)[C@H](CCC(=O)O)NC(=O)[C@H](CC(=O)O)NC(=O)[C@H](Cc1c[nH]c2ccccc12)NC(C)=O)[C@@H](C)CC)C(C)C)[C@@H](C)CC)C(=O)N[C@@H](CCC(=O)O)C(=O)N[C@@H](CCC(=O)O)C(=O)N[C@@H](CO)C(=O)N[C@@H](CC(=O)O)C(=O)N[C@@H](CCCCN)C(=O)N[C@@H](CCCCN)C(=O)N[C@@H](CC(C)C)C(=O)N[C@@H](Cc1c[nH]cn1)C(=O)N[C@@H](CC(N)=O)C(=O)N[C@H](C(=O)N[C@@H](CCC(=O)O)C(=O)N[C@@H](C)C(=O)N[C@@H](C)C(=O)N[C@@H](C)C(=O)N[C@@H](CCCCN)C(=O)N[C@@H](CCCCNC(=O)CCC(=O)O[C@H]1CC[C@@]2(C)C(=CC[C@H]3[C@@H]4CC[C@H]([C@H](C)CCCC(C)C)[C@@]4(C)CC[C@@H]32)C1)C(N)=O)C(C)C [Compound 44] (Ac-WDEFDKKIEEVNKKIEESLKKIEESDKKLHNVEAAAKK(Succinyl(4-O-cholesteryl))-NH2) | 26.5 | 0.0279 |
| CC[C@H](C)[C@H](NC(=O)[C@H](CCCCN)NC(=O)[C@H](CCCCN)NC(=O)[C@H](CC(C)C)NC(=O)[C@H](CO)NC(=O)[C@H](CCC(=O)O)NC(=O)[C@H](CCC(=O)O)NC(=O)[C@@H](NC(=O)[C@H](CCCCN)NC(=O)[C@H](CCCCN)NC(=O)[C@H](CC(N)=O)NC(=O)[C@@H](NC(=O)[C@H](CCC(=O)O)NC(=O)[C@H](CCC(=O)O)NC(=O)[C@@H](NC(=O)[C@H](CCCCN)NC(=O)[C@H](CCCCN)NC(=O)[C@H](CC(=O)O)NC(=O)[C@H](Cc1ccccc1)NC(=O)[C@H](CCC(=O)O)NC(=O)[C@H](CC(=O)O)NC(=O)[C@H](Cc1c[nH]c2ccccc12)NC(C)=O)[C@@H](C)CC)C(C)C)[C@@H](C)CC)C(=O)N[C@@H](CCC(=O)O)C(=O)N[C@@H](CCC(=O)O)C(=O)N[C@@H](CO)C(=O)N[C@@H](CC(=O)O)C(=O)N[C@@H](CCCCN)C(=O)N[C@@H](CCCCN)C(=O)N[C@@H](CC(C)C)C(=O)N[C@@H](CCC(=O)O)C(=O)N[C@@H](CCC(=O)O)C(=O)N[C@H](C(=O)N[C@@H](CC(N)=O)C(=O)N[C@@H](CCC(=O)O)C(=O)N[C@@H](C)C(=O)N[C@@H](C)C(=O)N[C@@H](C)C(=O)N[C@@H](CCCCN)C(=O)N[C@@H](CCCCNC(=O)CCC(=O)O[C@H]1CC[C@@]2(C)C(=CC[C@H]3[C@@H]4CC[C@H]([C@H](C)CCCC(C)C)[C@@]4(C)CC[C@@H]32)C1)C(N)=O)C(C)C [Compound 41] (Ac-WDEFDKKIEEVNKKIEESLKKIEESDKKLEEVNEAAAKK(Succinyl(4-O-cholesteryl))-NH2) | 17 | 0.0711 |
| Ac-WDEFDASISQVNEKINQSLEEIRKSDELLHNVNAGLGSGSGK(Succinyl(4-O-cholesteryl))-NH2 [Compound 27] | 18.4 | 0.0272 |
